The source of these data is publication PMC6222424, “Hits-to-Lead Optimization of the Natural Compound 2,4,6-Trihydroxy-3-geranyl-acetophenone (tHGA) as a Potent LOX Inhibitor: Synthesis, Structure-Activity Relationship (SAR) Study, and Computational Assignment” (Molecules : A Journal of Synthetic Chemistry and Natural …, 2018).

For data set [1], the target named is T1, soybean LOX-1 (Glycine max, UniProt P08170).
T1 sequence (P08170 1-839): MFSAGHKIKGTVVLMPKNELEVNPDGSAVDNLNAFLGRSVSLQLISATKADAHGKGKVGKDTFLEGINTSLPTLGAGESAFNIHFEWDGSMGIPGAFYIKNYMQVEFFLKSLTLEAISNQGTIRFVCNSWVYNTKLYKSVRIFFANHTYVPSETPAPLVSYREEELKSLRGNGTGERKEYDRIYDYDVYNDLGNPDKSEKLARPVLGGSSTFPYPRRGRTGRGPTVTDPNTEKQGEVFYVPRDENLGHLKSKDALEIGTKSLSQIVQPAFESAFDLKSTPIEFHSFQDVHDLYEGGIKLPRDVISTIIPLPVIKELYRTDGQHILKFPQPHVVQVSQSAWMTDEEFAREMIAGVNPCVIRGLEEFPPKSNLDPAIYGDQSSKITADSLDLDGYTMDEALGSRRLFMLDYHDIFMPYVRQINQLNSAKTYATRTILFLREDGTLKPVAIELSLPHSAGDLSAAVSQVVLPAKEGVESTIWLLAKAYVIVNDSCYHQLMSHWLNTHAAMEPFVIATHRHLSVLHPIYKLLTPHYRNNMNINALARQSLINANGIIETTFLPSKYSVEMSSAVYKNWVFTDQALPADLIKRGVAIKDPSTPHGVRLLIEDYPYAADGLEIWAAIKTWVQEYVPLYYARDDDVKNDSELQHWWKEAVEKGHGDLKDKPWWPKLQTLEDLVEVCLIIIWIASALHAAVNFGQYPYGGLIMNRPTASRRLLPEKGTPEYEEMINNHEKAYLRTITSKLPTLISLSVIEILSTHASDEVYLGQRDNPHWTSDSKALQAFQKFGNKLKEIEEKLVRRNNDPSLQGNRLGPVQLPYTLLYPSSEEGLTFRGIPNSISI
Kind of data set: In vitro soybean 15-lipoxygenase (LOX) inhibition assay. The note with it: for solubility of the compound in the 15-LOX assay: assay could not be carried out; for inhibition at 100 µg/mL: read-out: % Inhibition (100 μg/mL). The procedure:
Briefly, sodium phosphate buffer (160 μL, 100 mM, pH 8.0), test sample (10 μL), and soybean 15-LOX (1.13.11.12) type I-B solution (20 μL, 320 U/well) were mixed and incubated at room temperature for 15 min. The substrate linoleic acid (10 μL, 0.6 mM) solution was added to initiate the reaction. End product from the enzymatic conversion was measured at absorbance of 234 nm over a period of 6 min and the assay was performed in triplicate. Dimethyl sulfoxide (DMSO) was used as a solvent to dissolve test samples and reference standard. […] IC50 values were calculated by the nonlinear regression fitting curve of GraphPad Prism 5. The percentage of inhibition can be calculated by the following formula [10, 11]: Inhibitory% = ODcontrol−ODsample/ODcontrol

The target of data set [2] is T1, soybean LOX-1. The data set is described as follows: Enzyme kinetics study (Michaelis–Menten, Lineweaver–Burk). It is filed as biochemical. Also noted: purchased. The note with it: for type of inhibition: Lineweaver–Burk plot; for Ki: from slope of Lineweaver–Burk plot vs inhibitor concentration, read-out: Ki (inhibitor constant). As to the method:
Since compounds 3e and tHGA (3a) are competitive inhibitors, there were no changes in maximal velocity.
Kinetics study: Enzyme kinetics was performed similar to the above inhibition assay with slight modification. […] About 10 μL each of 4 linoleic acid substrate concentrations (0.2, 0.3, 0.4, and 0.5 mM) was added to initiate the enzymatic conversion. End product of the reaction was measured at 234 nm over a period of 10 min, with readings taken every 30 s. The type of inhibition (competitive, uncompetitive, noncompetitive) was determined by nonlinear regression Michaelis–Menten enzyme kinetics and the corresponding Lineweaver–Burk plots using 3 concentrations of each inhibitor: 0, 1.57, and 3.13 μg/mL. All experiments were performed in triplicate and the average values and standard errors were plotted. The Km and Vmax values were calculated from the nonlinear regression fitting curve of GraphPad Prism 5.

The target in data set [3] is T1, soybean LOX-1. More on the design: purchased; method as in PMID 25100256. Conditions: data published in previous work, read-out: IC50 Value (μM) Mean ± SEM, cited from earlier work.
Data set [4] deals with allergic airway inflammation. Also noted: method as in PMID 22266348. The note with it: acute murine model; compared with Zileuton; cited from earlier work.

Where two headings read alike, the source gives them in different places.

What is called melting point is the temperature of the solid-liquid transition. As for `COc1cc(OC)c(C(C)=O)c(O)c1C/C=C(\C)CCC=C(C)C` [Compound 5a, (E)-1-(3-(3,7-dimethylocta-2,6-dienyl)-2-hydroxy-4,6-dimethoxyphenyl)ethanone], the melting point was in the range of 72 to 74 °C. In addition, the “solubility of the compound in the 15-LOX assay” value (“solubility of the compound” below) in data set [1] is recorded as “insolubility”.
The like results for `COc1cc(OC)c(C(C)=O)c(O)c1CC=C(C)C` [Compound 6a, 1-(2-hydroxy-4,6-dimethoxy-3-(3-methylbut-2-enyl)phenyl)ethanone] were, in that order, 97 to 99 °C and “insolubility”.
As usually defined, the IC50 is the concentration needed to halve the response being measured. As to `CC(C)=CCc1c(O)cc(O)c(C(=O)C2CCCCC2)c1O` [Compound 4f, Cyclohexyl(2,4,6-trihydroxy-3-(3-methylbut-2-enyl)phenyl)methanone], in data set [1], the midpoint of inhibition, the IC50, lay at 52.6 ± 1 µM and the inhibition at 100 µg/mL came out at 93.7 ± 3.8%.
As usually defined, the Ki is the dissociation constant of the complex between target and ligand, obtained from inhibition or displacement. As for `CCCCC(=O)c1c(O)cc(O)c(C/C=C(\C)CCC=C(C)C)c1O` [Compound 3e, (E)-1-(3-(3,7-dimethylocta-2,6-dienyl)-2,4,6-trihydroxyphenyl)pentan-1-one], in data set [2], the type of inhibition result was “competitive” and the Ki was 36.1 µM. Also, the “fold less active than the standard drug NDGA” value in data set [1] (IC50 compared with NDGA) amounted to 100 fold. In addition, the 50% inhibitory concentration (IC50) in data set [3] was 10.3 µM.
`CC(C)=CCc1c(O)cc(O)c(C(=O)/C=C/c2ccccc2)c1O` [Compound 4g, (E)-3-phenyl-1-(2,4,6-trihydroxy-3-(3-methylbut-2-enyl)phenyl)prop-2-en-1-one] yielded a melting point of 203 to 205 °C. In addition, in data set [1], the IC50 was determined as 95.4 ± 4 µM and the inhibition at 100 µg/mL came to 95.2 ± 3.2%.
For `CCCCC(=O)c1c(OC)cc(OC)c(C/C=C(\C)CCC=C(C)C)c1O` [Compound 5e, (E)-1-(3-(3,7-dimethylocta-2,6-dienyl)-2-hydroxy-4,6-dimethoxyphenyl)pentan-1-one], the “solubility of the compound” value in data set [1] is given as “insolubility”.
`CCCCC(=O)c1c(OC)cc(OC)c(CC=C(C)C)c1O` [Compound 6e, 1-(2-hydroxy-4,6-dimethoxy-3-(3-methylbut-2-enyl)phenyl)pentan-1-one] displayed a melting point of 84 to 86 °C. In addition, in data set [1], the “solubility of the compound” value was “insolubility”.
`CC(C)=CCC/C(C)=C/Cc1c(O)cc(O)c(C(=O)C2CCCCC2)c1O` [Compound 3f]: the IC50 in data set [3] was 26.3 ± 1.3 µM.
`CCC(=O)c1c(O)cc(O)c(CC=C(C)C)c1O` [Compound 4c, 1-(2,4,6-trihydroxy-3-(3-methylbut-2-enyl)phenyl)propan-1-one] yielded a melting point of 138 to 140 °C. Also, in data set [1], inhibition was half-maximal at 61 ± 1.1 µM (IC50) and the inhibition at 100 µg/mL is 78.1 ± 3.9%.
In the case of `CC(C)=CCc1c(O)cc(O)c(C(=O)C(C)C)c1O` [Compound 4b, 2-methyl-1-(2,4,6-trihydroxy-3-(3-methylbut-2 enyl)phenyl)propan-1-one], in data set [1], 53.7 ± 0.7 µM corresponded to half-maximal inhibition (IC50) and the inhibition at 100 µg/mL stood at 82.5 ± 7.3%.
Consider `CCC(=O)c1c(O)cc(O)c(C/C=C(\C)CCC=C(C)C)c1O` [Compound 3c, (E)-1-(3-(3,7-dimethylocta-2,6-dienyl)-2,4,6-trihydroxyphenyl)propan-1-one], for which, in data set [3], the IC50 is 12.3 ± 0.6 µM.
Turning to `CCCC(=O)c1c(O)cc(O)c(CC=C(C)C)c1O` [Compound 4d, 1-(2,4,6-trihydroxy-3-(3-methylbut-2-enyl)phenyl)butan-1-one], in data set [1], the IC50 was determined as 39.5 ± 1.2 µM and the inhibition at 100 µg/mL is 86.2 ± 6.9%.
For the compound `CC(=O)c1c(O)cc(O)c(C/C=C(\C)CCC=C(C)C)c1O` [Compound 3a, 2,4,6-Trihydroxy-3-geranylacetophenone], in data set [2], the type of inhibition result was “competitive” and the Ki is 41.1 µM. In addition, the “prevention of allergic airway inflammation” value in data set [4] is “as effective as Zileuton”. The half-inhibitory concentration (IC50) in data set [3] (listed as 3a (tHGA)) was 23.6 ± 1.7 µM.
As to `CC(C)=CCC/C(C)=C/Cc1c(O)cc(O)c(C(=O)C(C)C)c1O` [Compound 3b], the half-maximal inhibitory concentration (IC50) in data set [3] was 27.6 ± 3.6 µM.
For the compound `CC(=O)c1c(O)cc(O)c(CC=C(C)C)c1O` [Compound 4a, 1-(2,4,6-trihydroxy-3-(3-methylbut-2-enyl)phenyl)ethanone], in data set [1], the IC50 turned out to be 72.1 ± 1.2 µM and the inhibition at 100 µg/mL was determined as 94.8 ± 5.2%.
In turn, `CCCCC(=O)c1c(O)cc(O)c(CC=C(C)C)c1O` [Compound 4e, 1-(2,4,6-trihydroxy-3-(3-methylbut-2-enyl)phenyl)pentan-1-one] yielded a melting point of 133 to 135 °C. Moreover, in data set [1], the midpoint of inhibition, the IC50, lay at 35.1 ± 1.3 µM and the inhibition at 100 µg/mL stood at 79.4 ± 6.7%.
Compound `CCCC(=O)c1c(O)cc(O)c(C/C=C(\C)CCC=C(C)C)c1O` [Compound 3d, (E)-1-(3-(3,7-dimethylocta-2,6-dienyl)-2,4,6-trihydroxyphenyl)butan-1-one] displayed a melting point of 116 to 118 °C. Further, in data set [1], the IC50 came to 15.3 ± 0.5 µM and the inhibition at 100 µg/mL amounted to 90.7 ± 5%.
